In brackets after ≈: the same amount, converted by molar mass. Counter-ions that a name gives are not always drawn. Like-named read-outs stand apart in the source and are kept apart here.
Tests used:
Assay in all cases: Antibacterial spectrum (Minimum Inhibitory Concentration)
Assay type in all cases: cell-based
[1] = test system: Pseudomonas aeruginosa V-1
Description: (§1) The antibacterial tests were done according to the method authorized by the Chemotherapeutic Society of Japan.

[2] = test system: Staphylococcus aureus 209P; settings: read-out: Minimum Inhibitory Concentration
Description: as §1

E. coli ATCC 10536 = settings: Escherichia coli
Description: as §1

Ps. aeruginosa IID 1130 = settings: Pseudomonas aeruginosa
Description: as §1

Ser. marcescens IID 619 = settings: Serratia marcescens
Description: as §1

[3] = test system: Proteus vulgaris IFO 3167
Description: as §1

[4] = test system: Serratia marcescens IID 618
Description: as §1

[5] = test system: Bacillus subtilis PCI 219
Description: as §1

Ps. aeruginosa IID 1210 = settings: Pseudomonas aeruginosa
Description: as §1

Sta. aureus ATCC 14775 = settings: Staphylococcus aureus
Description: as §1

Ser. marcescens IID 620 = settings: Serratia marcescens
Description: as §1

Pr. vulgaris XK Denken = settings: Proteus vulgaris, read-out: Minimum Inhibitory Concentration
Description: as §1

[6] = test system: Salmonella enteritidies IID 604
Description: as §1

[7] = test system: Escherichia coli NIHJ JC-2
Description: as §1

Ps. aeruginosa IFO 12689 = settings: Pseudomonas aeruginosa
Description: as §1

[8] = test system: Klebsiella pneumoniae IFO 3512
Description: as §1

Shigella sonnei IID 969 = settings: IID969; Shigella sonnei IID 969, Gram -
Description: as §1

[9] = test system: Mycobacterium smegmatis IFO 3083; settings: Mycolicibacterium smegmatis, IFO3083; Mycobacterium smegmatis IFO 3083, Gram +; read-out: Minimum Inhibitory Concentration
Description: as §1

[10] = V1, Pseudomonas aeruginosa V-1, Gram -, read-out: Minimum Inhibitory Concentration
[11] = Staphylococcus aureus 209P, Gram +
[12] = ATCC10536, read-out: Minimum Inhibitory Concentration
[13] = IID1130, Ps. aeruginosa IID 1130, Gram -, read-out: Minimum Inhibitory Concentration
[14] = IID619, Ser. marcescens IID 619, Gram -, read-out: Minimum Inhibitory Concentration
[15] = IFO3167, Proteus vulgaris IFO 3167, Gram -, read-out: Minimum Inhibitory Concentration
[16] = IID618, Serratia marcescens IID 618, Gram -, read-out: Minimum Inhibitory Concentration
[17] = PCI219, Bacillus subtilis PCI 219, Gram +, read-out: Minimum Inhibitory Concentration
[18] = IID1210, Ps. aeruginosa IID 1210, Gram -, read-out: Minimum Inhibitory Concentration
[19] = ATCC14775, Sta. aureus ATCC 14775, Gram +, read-out: Minimum Inhibitory Concentration
[20] = IID620, Ser. marcescens IID 620, Gram -, read-out: Minimum Inhibitory Concentration
[21] = IID604, Salmonella enteritidies IID 604, Gram -, read-out: Minimum Inhibitory Concentration
[22] = NIHJJC2, Escherichia coli NIHJ JC-2, Gram -, read-out: Minimum Inhibitory Concentration
[23] = IFO12689, Ps. aeruginosa IFO 12689, Gram -, read-out: Minimum Inhibitory Concentration
[24] = IFO3512, Klebsiella pneumoniae IFO 3512, Gram -, read-out: Minimum Inhibitory Concentration
[25] = Bacillus subtilis, PCI219, read-out: Minimum Inhibitory Concentration
[26] = ATCC14775, read-out: Minimum Inhibitory Concentration
[27] = Klebsiella pneumoniae, IFO3512, read-out: Minimum Inhibitory Concentration
[28] = ATCC10536, E. coli ATCC 10536, Gram -, read-out: Minimum Inhibitory Concentration
[29] = Proteus vulgaris, IFO3167, read-out: Minimum Inhibitory Concentration
[30] = Salmonella, IID604, read-out: Minimum Inhibitory Concentration
[31] = IFO12689, read-out: Minimum Inhibitory Concentration
[32] = Escherichia coli, NIHJJC2, read-out: Minimum Inhibitory Concentration

| SMILES | MIC [1, 10] [µg/mL] | MIC [2, 11] [µg/mL] | MIC (E. coli ATCC 10536; [12]) [µg/mL] | MIC (Ps. aeruginosa IID 1130; [13]) [µg/mL] | MIC (Ser. marcescens IID 619; [14]) [µg/mL] | MIC [3, 15] [µg/mL] | MIC [4, 16] [µg/mL] | MIC [5, 17] [µg/mL] | MIC (Ps. aeruginosa IID 1210; [18]) [µg/mL] | MIC (Sta. aureus ATCC 14775; [19]) [µg/mL] | MIC (Ser. marcescens IID 620; [20]) [µg/mL] | MIC (Pr. vulgaris XK Denken; Pr. vulgaris XK Denken, Gram -) [µg/mL] | MIC [6, 21] [µg/mL] | MIC [7, 22] [µg/mL] | MIC (Ps. aeruginosa IFO 12689; [23]) [µg/mL] | MIC [8, 24] [µg/mL] | MIC (E. coli ATCC 10536; [28]) [µg/mL] | MIC [3, 29] [µg/mL] | MIC (Shigella sonnei IID 969) [µg/mL] | also measured |
| --- | --- | --- | --- | --- | --- | --- | --- | --- | --- | --- | --- | --- | --- | --- | --- | --- | --- | --- | --- | --- |
| CCn1cc(C(=O)O)c(=O)c2cc(F)c(N3CCN(C4OC(=O)c5ccccc54)CC3)cc21 (stereo not drawn) [Example 28, 1-ethyl-1,4-dihydro-6-fluoro-4-oxo-7-(4-phthalidyl-1-piperazinyl)quinoline-3-carboxylic acid] | 0.78 (≈ 1.73 µM) | 0.78 (≈ 1.73 µM) | 0.1 (≈ 0.222 µM) | 1.56 (≈ 3.46 µM) | 0.2 (≈ 0.443 µM) | ≤ 0.05 | 0.1 (≈ 0.222 µM) | 0.2 (≈ 0.443 µM) | 1.56 (≈ 3.46 µM) | 3.13 (≈ 6.93 µM) | 0.1 (≈ 0.222 µM) | 0.2 (≈ 0.443 µM) | 0.1 (≈ 0.222 µM) | ≤ 0.05 | 1.56 (≈ 3.46 µM) | ≤ 0.05 |  |  |  |  |
| CCn1cc(C(=O)O)c(=O)c2cc(F)c(N3CCN(Cc4ccc(N)cc4)CC3)cc21.Cl [Example 7, 1-ethyl-7-[(4-p-aminobenzyl)-1-piperazinyl]-1,4-dihydro-6-fluoro-4-oxo-quinoline-3-carboxylic acid hydrochloride] | 12.5 |  | 0.39 | 25 | 3.13 | 0.78 | 3.13 |  | 25 |  |  | 0.78 | 3.13 |  | 25 |  |  |  |  | MIC [5, 25]: 0.2 µg/mL; MIC (Sta. aureus ATCC 14775; [26]): 0.39 µg/mL; MIC [8, 27]: 0.1 µg/mL |
| CN1CCN(c2cc3c(cc2F)c(=O)c(C(=O)O)cn3CCF)CC1 [Example 6, 1-(2-fluoroethyl)-6-fluoro-7-(4-methyl-1-piperazinyl)-4-oxo-1,4-dihydroquinoline-3-carboxylic acid] | 3.13 (≈ 8.91 µM) | 0.39 (≈ 1.11 µM) |  | 6.25 (≈ 17.8 µM) | 0.2 (≈ 0.569 µM) |  | 0.2 (≈ 0.569 µM) |  | 6.25 (≈ 17.8 µM) | 0.78 (≈ 2.22 µM) | 0.2 (≈ 0.569 µM) |  | 0.78 (≈ 2.22 µM) | < 0.1 | 3.13 (≈ 8.91 µM) |  | 0.2 (≈ 0.569 µM) | < 0.1 | < 0.1 | MIC [5, 25]: < 0.1 µg/mL; MIC (Pr. vulgaris XK Denken): < 0.1 µg/mL; MIC [8, 27]: < 0.1 µg/mL |
| CCn1cc(C(=O)O)c(=O)c2cc(F)c(N3CCNCC3)nc21.Cl [Example 1, 1-ethyl-1,4-dihydro-6-fluoro-7-(1-piperazinyl)-4-oxo-1,8-naphthyridine-3-carboxylic acid hydrochloride] | 3.13 | 0.78 |  | 1.56 | 0.78 | 0.2 | 0.39 | 0.39 | 6.25 | 6.25 | 0.39 | 0.39 |  | 0.2 |  | 0.2 | 0.39 |  |  | MIC [6, 30]: 0.39 µg/mL; MIC (Ps. aeruginosa IFO 12689; [31]): 6.25 µg/mL |
| Cl.O=C(O)c1cn(CCF)c2cc(N3CCNCC3)c(F)cc2c1=O [Example 5, 1-(2-fluoroethyl)-6-fluoro-7-(1-piperazinyl)-4-oxo-1,4-dihydroquinoline-3-carboxylic acid hydrochloride] |  |  | 0.2 |  |  |  |  |  |  |  |  |  |  |  |  |  |  | 0.2 | < 0.1 | MIC ([1]; Pseudomonas aeruginosa, V1, read-out: Minimum Inhibitory Concentration): 0.78 µg/mL; MIC ([2]; Staphylococcus aureus, 209P): 1.56 µg/mL; MIC (Ps. aeruginosa IID 1130; IID1130, read-out: Minimum Inhibitory Concentration): 1.56 µg/mL; MIC (Ser. marcescens IID 619; IID619, read-out: Minimum Inhibitory Concentration): 0.39 µg/mL; MIC ([4]; Serratia marcescens, IID618, read-out: Minimum Inhibitory Concentration): 0.2 µg/mL; MIC [5, 25]: 0.2 µg/mL; MIC (Ps. aeruginosa IID 1210; IID1210, read-out: Minimum Inhibitory Concentration): 3.13 µg/mL; MIC (Sta. aureus ATCC 14775; [26]): 6.25 µg/mL; MIC (Ser. marcescens IID 620; IID620, read-out: Minimum Inhibitory Concentration): 0.2 µg/mL; MIC (Pr. vulgaris XK Denken): 0.39 µg/mL; MIC [6, 30]: 0.78 µg/mL; MIC [7, 32]: < 0.1 µg/mL; MIC (Ps. aeruginosa IFO 12689; [31]): 3.13 µg/mL; MIC [8, 27]: < 0.1 µg/mL |
| CCOC(=O)CN1CCN(c2cc3c(cc2Cl)c(=O)c(C(=O)O)cn3CC)CC1 [Example 13, 1-ethyl-6-chloro-7-(4-ethoxycarbonylmethyl-1-piperazinyl)-4-oxo-1,4-dihydroquinoline-3-carboxylic acid] | > 100 | > 100 |  |  |  | 100 (≈ 237 µM) |  | 3.13 (≈ 7.42 µM) |  |  |  | 50 (≈ 119 µM) |  | 100 (≈ 237 µM) | > 100 | 6.25 (≈ 14.8 µM) | 100 (≈ 237 µM) |  |  | MIC [9]: 25 µg/mL (≈ 59.3 µM) |
| CCn1cc(C(=O)O)c(=O)c2cc(Br)c(N3CCNCC3)cc21 [Example 22, 1-ethyl-6-bromo-dihydro-4-oxo-7-(1-piperazinyl)quinoline-3-carboxylic acid hydrochloride] | 12.5 | 3.13 |  | 50 | 3.13 | 0.39 | 0.78 | 1.56 | 100 | 12.5 | 0.78 | 1.56 | 1.56 | 0.39 | 50 | 0.39 | 0.78 |  | 0.39 |  |
| CCn1cc(C(=O)O)c(=O)c2cc(F)c(N3CCNC(=O)C3)cc21 [Example 8, 1-ethyl-1,4-dihydro-6-fluoro-7-(3-oxo-1-piperazinyl)-4-oxoquinoline-3-carboxylic acid] | 12.5 (≈ 37.5 µM) | 3.13 (≈ 9.39 µM) |  | 25 (≈ 75 µM) | 12.5 (≈ 37.5 µM) | 0.78 (≈ 2.34 µM) | 6.25 (≈ 18.8 µM) | 0.78 (≈ 2.34 µM) | > 25 | 6.25 (≈ 18.8 µM) | 6.25 (≈ 18.8 µM) | 0.39 (≈ 1.17 µM) | 12.5 (≈ 37.5 µM) | 0.39 (≈ 1.17 µM) | 25 (≈ 75 µM) | 0.1 (≈ 0.3 µM) | 0.78 (≈ 2.34 µM) |  |  |  |
| CCn1cc(C(=O)O)c(=O)c2cc(Br)c(N3CCN(C)CC3)cc21 [Example 23, 1-ethyl-6-bromo-1,4-dihydro-7-(4-methyl-1-piperazinyl)-4-oxoquinoline-3-carboxylic acid] | 100 (≈ 254 µM) | 1.56 (≈ 3.96 µM) |  | > 100 | 3.13 (≈ 7.94 µM) | 0.78 (≈ 1.98 µM) | 0.78 (≈ 1.98 µM) | 0.78 (≈ 1.98 µM) | > 100 | 3.13 (≈ 7.94 µM) | 0.78 (≈ 1.98 µM) | 3.13 (≈ 7.94 µM) | 3.13 (≈ 7.94 µM) | 0.39 (≈ 0.989 µM) | > 100 | 0.39 (≈ 0.989 µM) | 0.78 (≈ 1.98 µM) |  | 0.78 (≈ 1.98 µM) |  |
| C=Cn1cc(C(=O)O)c(=O)c2cc(F)c(N3CCN(C)CC3)cc21.Cl [Example 4, 1-vinyl-6-fluoro-7-(4-methyl-1-piperazinyl)-4-oxo-1,4-dihydroquinoline-3-carboxylic acid hydrochloride] | 3.13 | 1.56 | 0.2 | 6.25 | 0.78 |  | 0.39 | 0.39 | 3.13 | 3.13 | 0.39 |  | 0.78 | < 0.1 | 3.13 | < 0.1 |  | 0.2 | 0.2 | MIC (Pr. vulgaris XK Denken): 0.2 µg/mL |
| CCn1cc(C(=O)O)c(=O)c2cc(F)c(N3CCN(Cc4ccc([N+](=O)[O-])cc4)CC3)cc21 [Example 27, 1-ethyl-1,4-dihydro-6-fluoro-7-[4-(p-nitrobenzyl)-1-piperazinyl]-4-oxo-3-carboxylic acid] | > 50 | 1.56 (≈ 3.43 µM) | 6.25 (≈ 13.8 µM) |  |  |  |  | 0.1 (≈ 0.22 µM) |  | 3.13 (≈ 6.89 µM) |  | 12.5 (≈ 27.5 µM) |  |  | > 50 | 0.1 (≈ 0.22 µM) |  | 6.25 (≈ 13.8 µM) | 6.25 (≈ 13.8 µM) | MIC [7, 32]: 6.25 µg/mL (≈ 13.8 µM) |
| CCn1cc(C(=O)O)c(=O)c2cc(Cl)c(N3CCN(CC(=O)O)CC3)cc21 [Example 14] | > 100 |  |  |  |  | 25 (≈ 63.5 µM) |  | 50 (≈ 127 µM) |  |  |  | 12.5 (≈ 31.7 µM) |  | 12.5 (≈ 31.7 µM) | > 100 | 12.5 (≈ 31.7 µM) | 12.5 (≈ 31.7 µM) |  |  | MIC [9]: > 100 µg/mL; MIC ([2]; Staphylococcus aureus, 209P): 50 µg/mL (≈ 127 µM) |

Source: patent US4448962A, “Substituted quinoline carboxylic acid derivatives” (Kyorin Seiyaku Kabushiki Kaisha, priority 1978, dated 1984)
